Laboratory results reported in US5028603A, “Ester-substituted thienotriazolodiazepine compounds and pharmaceutical uses thereof” (Yoshitomi Pharmaceutical Industries, Ltd., priority 1987, dated 1991).
In brackets after ≈: the same amount, converted by molar mass. Structures can show the parent of a compound that is named as a salt. Where two headings read alike, the source gives them in different places.

Test system: PAF-induced platelet aggregation
Experiment: Inhibitory effect on PAF-induced platelet aggregation in rabbits (in vitro test)
Assay type: cell-based
Conditions: Oryctolagus cuniculus, read-out: Inhibition of PAF-induced platelet aggregation IC50
Description: Experiment 1: Inhibitory effect on platelet aggregation in rabbits (in vitro test)
Blood samples to which was added 1/10 volume of 3.8% sodium citrate solution were collected from rabbits. Platelet rich plasma (PRP) was prepared by centrifuging the blood sample at 200×g for 10 minutes, and platelet poor plasma (PPP) was prepared by centrifuging the remaining blood sample at 1000× g for 10 minutes.
Aggregation ability was measured with a turbidimetric device (6-channel NKK Hematracer 1, model PAT-6A) according to the method of G.V.R. Born described in J. Physiology, vol. 168, p. 178 (1963). The aggregometer was adjusted in sensitivity to give light transmission values of 0 and 100% for PRP and PPP, respectively. With stirring at 1000 rpm, 0.3 μl of test compound solution or solvent was added to 0.3 ml of PRP. After the mixture was kept at 37° C. for 2 minutes, to the mixture was added 3 μl synthetic PAF at the final concentration of 1.8×10^-7 M and the light transmission was recorded for 5 minutes.
The inhibition percentage of test compounds on platelet aggregation was calculated from the following formula by measuring the maximal light transmission in the presence and absence of the test compounds. [formula]
IC50 (μg/ml, concentration of 50% inhibition) was graphically determined.

Cc1nnc2n1-c1sc(C(C)OC(=O)C(C)c3ccc(CC(C)C)cc3)cc1C(c1ccccc1Cl)=NC2 (centres unmarked) [Example 2, 2-(1-(2-(4-iso-butylphenyl)propionyl)oxyethyl)-4-(2-chlorophenyl)-9-methyl-6H-thieno[3,2-f][1,2,4]triazolo[4,3-a][1,4]diazepine]
IC50 (Platelet): 0.01 to 0.03 µg/mL (≈ 0.0183 to 0.0548 µM)

Cc1ccccc1C1=NCc2nnc(C)n2-c2sc(C(C)OC(=O)C(C)c3ccc(CC(C)C)cc3)cc21 (centres unmarked) [Example 4, 2-(1-(2-(4-isobutylphenyl)propionyl)oxyethyl)-4-(2-methylphenyl)-9-methyl-6H-thieno[3,2-f][1,2,4]triazolo[4,3-a][1,4]diazepine]
IC50 (rabbit platelet rich plasma, 37° C., PAF final concentration 1.8×10^-7 M): 0.03 to 0.1 µg/mL (≈ 0.057 to 0.19 µM)

CCc1cc2c(s1)-n1c(C)nnc1CN=C2c1ccccc1Cl [Etizolam, 6-(o-chlorophenyl)-8-ethyl-1-methyl-4H-s-triazolo [3,4c]thieno[2,3-e][1,4]diazepine, reference compound]
IC50 (Platelet): 1.3 µg/mL (≈ 3.79 µM)

Cc1nnc2n1-c1sc(C(C)OC(=O)c3ccccc3)cc1C(c1ccccc1Cl)=NC2 (centres unmarked) [Example 13, 2-(1-benzoyloxyethyl)-4-(2-chlorophenyl)-9-methyl-6H-thieno[3,2-f][1,2,4]triazolo[4,3-a][1,4]diazepine.hydrochloride]
IC50 (Platelet): 0.1 to 0.3 µg/mL

Cc1nnc2n1-c1sc(C(C)OC(=O)C(C)(C)C)cc1C(c1ccccc1Cl)=NC2 (centres unmarked) [Example 14, 4-(2-chlorophenyl)-9-methyl-2(1-pivaloyloxyethyl)-6H-thieno[3,2-f][1,2,4]triazolo[4,3-a][1,4]diazepine]
IC50 (Platelet): 0.2 µg/mL (≈ 0.451 µM)
